According to US9353090B2, “Heterocyclic carboxylic acids as activators of soluble guanylate cyclase” (Boehringer Ingelheim International GmbH, priority 2014, dated 2016):
Converted amounts (≈) assume the structure as drawn.

Tests used:
[1] = target: human soluble guanylate cyclase alpha 1 and beta 1 subunits (sGC) (Homo sapiens (Human), UniProt Q02108+Q02153); assay: sGC cellular activator assay (cGMP, HTRF), in the presence and absence of 50% human serum; assay type: cell-based; conditions: CHO cells stably expressing human sGC alpha 1/beta 1, preincubated with 40 microM ODQ; cGMP by HTRF; Table 2 does not state whether with or without 50% human serum
Sequence of human soluble guanylate cyclase alpha 1 and beta 1 subunits (sGC) (Q02108 whole entry partner): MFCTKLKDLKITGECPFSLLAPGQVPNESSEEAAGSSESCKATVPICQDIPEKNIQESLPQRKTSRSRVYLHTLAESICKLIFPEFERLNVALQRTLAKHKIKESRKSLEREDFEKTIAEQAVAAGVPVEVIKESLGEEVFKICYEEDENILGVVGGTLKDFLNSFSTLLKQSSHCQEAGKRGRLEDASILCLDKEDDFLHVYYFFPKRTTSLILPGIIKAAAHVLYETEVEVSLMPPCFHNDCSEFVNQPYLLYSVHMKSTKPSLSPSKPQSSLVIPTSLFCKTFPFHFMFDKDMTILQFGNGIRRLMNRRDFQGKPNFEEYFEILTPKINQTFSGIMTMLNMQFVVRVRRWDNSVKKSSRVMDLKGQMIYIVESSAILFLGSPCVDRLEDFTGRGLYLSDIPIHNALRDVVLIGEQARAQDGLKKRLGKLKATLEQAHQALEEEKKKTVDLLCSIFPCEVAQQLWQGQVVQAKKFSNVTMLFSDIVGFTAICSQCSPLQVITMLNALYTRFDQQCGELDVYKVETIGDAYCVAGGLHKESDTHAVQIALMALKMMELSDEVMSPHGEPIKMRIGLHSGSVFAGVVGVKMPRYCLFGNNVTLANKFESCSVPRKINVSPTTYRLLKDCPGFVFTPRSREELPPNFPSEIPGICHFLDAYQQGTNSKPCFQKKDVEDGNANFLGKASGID
Sequence of human soluble guanylate cyclase alpha 1 and beta 1 subunits (sGC) (Q02153 whole entry): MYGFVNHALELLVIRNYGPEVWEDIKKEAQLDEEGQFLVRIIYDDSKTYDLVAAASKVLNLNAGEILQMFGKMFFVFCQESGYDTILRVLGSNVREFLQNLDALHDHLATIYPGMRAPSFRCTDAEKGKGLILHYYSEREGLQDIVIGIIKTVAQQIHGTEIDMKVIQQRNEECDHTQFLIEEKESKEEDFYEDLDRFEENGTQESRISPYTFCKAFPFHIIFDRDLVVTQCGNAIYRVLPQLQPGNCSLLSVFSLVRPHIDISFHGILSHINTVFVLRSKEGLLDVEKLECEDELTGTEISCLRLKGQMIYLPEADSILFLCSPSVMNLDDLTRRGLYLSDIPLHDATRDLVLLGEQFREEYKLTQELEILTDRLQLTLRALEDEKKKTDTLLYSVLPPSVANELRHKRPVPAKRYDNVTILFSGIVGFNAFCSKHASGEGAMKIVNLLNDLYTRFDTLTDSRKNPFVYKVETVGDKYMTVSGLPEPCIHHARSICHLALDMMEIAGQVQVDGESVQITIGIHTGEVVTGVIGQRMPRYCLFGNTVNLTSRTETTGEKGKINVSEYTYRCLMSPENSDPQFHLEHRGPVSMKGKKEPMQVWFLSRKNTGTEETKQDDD
In short: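 First, CHO-sGC (human α1β1) cells get 1 h ODQ at 40 microM with IBMX and 0.1% BSA. Finally, cGMP is quantified by HTRF and EC50 computed.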

[2] = Human liver microsome (HLM) metabolic stability assay; assay type: in vitro ADME; conditions: human liver microsomes
In short: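 Remaining parent measured by LC/MS/MS (ESI, MRM) at 5, 15, 30 and 60 min relative to 0 min. Incubation: 1 uM compound, HLMs, NADPH-started, 37° C., 60 min total, single replicate. Slope of ln(% remaining) gives t1/2 = 0.693/slope, then CLint, CLh and % Qh.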

physchem = conditions: kinetic from dmso stock
[3] = pH 2.2, aqueous buffer, Solubility (pH 2.2)
[4] = pH 4.5, aqueous buffer, Solubility (pH 4.5)
[5] = pH 6.8, aqueous buffer, Solubility (pH 6.8)

Row | SMILES | EC50 [1] [nM] | Metabolic stability (Qh %), % hepatic blood flow [2] [%] | solubility at 24 h (physchem; [3]) [µg/mL] | solubility at 24 h (physchem; [4]) [µg/mL] | solubility at 24 h (physchem; [5]) [µg/mL]
1 | CO[C@H]1CN(c2cccc(-c3cccc(C)c3OCc3ccc4c(c3)CCN(C3CCOCC3)C4)n2)CC[C@H]1C(=O)O [Compound 64, (3R,4R)-3-Methoxy-6′-{3-methyl-2-[2-(tetrahydro-pyran-4-yl)-1,2,3,4-tetrahydro-isoquinolin-6-ylmethoxy]-phenyl}-3,4,5,6-tetrahydro-2H-[1,2′]bipyridinyl-4-carboxylic acid] | 36 | 29 | 100 (≈ 175 µM) | 88 (≈ 154 µM) | 69 (≈ 121 µM)
2 | CO[C@H]1CN(c2cccc(-c3cccc(C)c3OCc3ccc4c(c3C)CCN(C3CCOCC3)C4)n2)CC[C@H]1C(=O)O [Compound 65] | 29 | 31 | 130 (≈ 222 µM) | 110 (≈ 188 µM) | 80 (≈ 137 µM)
3 | CO[C@H]1CN(c2cccc(-c3cccc(C)c3OCc3ccc4c(c3C)CCN(C3COC3)C4)n2)CC[C@H]1C(=O)O [Compound 66] | 20 | 33 | 100 (≈ 179 µM) | 84 (≈ 151 µM) | 64 (≈ 115 µM)
4 | CO[C@@H]1CN(c2cccc(-c3cccc(C)c3OCc3ccc4c(c3)CCN(C3CCOCC3)C4)n2)CC[C@@H]1C(=O)O [Compound 67] | 23 | <24 | 100 (≈ 175 µM) | 92 (≈ 161 µM) | 71 (≈ 124 µM)
5 | CO[C@@H]1CN(c2cccc(-c3cccc(C)c3OCc3ccc4c(c3C)CCN(C3CCOCC3)C4)n2)CC[C@@H]1C(=O)O [Compound 68] | 14 | <24 | 140 (≈ 239 µM) | 120 (≈ 205 µM) | 93 (≈ 159 µM)
6 | CO[C@@H]1CN(c2cccc(-c3cccc(C)c3OCc3ccc4c(c3C)CCN(C3COC3)C4)n2)CC[C@@H]1C(=O)O [Compound 69] | 16 | <24 | 130 (≈ 233 µM) | 110 (≈ 197 µM) | 89 (≈ 160 µM)
7 | CO[C@H]1CN(c2cccc(-c3cc(C)ccc3OCc3ccc4c(c3)CCN(C3CCOCC3)C4)n2)CC[C@H]1C(=O)O [Compound 70] | 120 | <24 | 130 (≈ 227 µM) | 120 (≈ 210 µM) | 83 (≈ 145 µM)
8 | CO[C@H]1CN(c2cccc(-c3cc(C)ccc3OCc3ccc4c(c3C)CCN(C3CCOCC3)C4)n2)CC[C@H]1C(=O)O [Compound 71] | 110 | <24 | 130 (≈ 222 µM) | 110 (≈ 188 µM) | 81 (≈ 138 µM)
9 | CO[C@H]1CN(c2cccc(-c3cc(C)ccc3OCc3cc(C)c4c(c3)CCN(C3CCOCC3)C4)n2)CC[C@H]1C(=O)O [Compound 72] | 64 | <24 | 120 (≈ 205 µM) | 100 (≈ 171 µM) | 74 (≈ 126 µM)
10 | CO[C@H]1CN(c2cccc(-c3cc(C)ccc3OCc3ccc4c(c3C)CCN(C3CCOCC3)CC4)n2)CC[C@H]1C(=O)O [Compound 73] | 57 | 28 | 110 (≈ 183 µM) | 93 (≈ 155 µM) | 69 (≈ 115 µM)
11 | CO[C@@H]1CN(c2cccc(-c3cc(C)ccc3OCc3ccc4c(c3)CCN(C3CCOCC3)C4)n2)CC[C@@H]1C(=O)O [Compound 74] | 20 | <24 | 120 (≈ 210 µM) | 100 (≈ 175 µM) | 80 (≈ 140 µM)
12 | CO[C@@H]1CN(c2cccc(-c3cc(C)ccc3OCc3ccc4c(c3C)CCN(C3CCOCC3)C4)n2)CC[C@@H]1C(=O)O [Compound 75] | 15 | <24 | 120 (≈ 205 µM) | 110 (≈ 188 µM) | 74 (≈ 126 µM)
